The results in this text go back to patent US20260048111A1, “Pharmaceutical Composition, Preparation Method and Use Thereof” (PuGong Biotech (Hangzhou) Co., Ltd., priority 2023, published 2026).

Like-named read-outs stand apart in the source and are kept apart here.

The subject of one experiment is LLC cells. The format is in vivo, mouse. To be noted: for Tumor Inhibition Rate: LLC. The method, then:
The LLC cells were cultured in DMEM medium containing […] high-quality fetal bovine serum, in a cell incubator with […] CO2 at 37° C.
The LLC cells (tumor source) in the logarithmic growth phase were collected, and 0.1 mL of cell suspension (containing approximately 1×10^6 cells) was inoculated subcutaneously into the axillary region of the corresponding C57/BL/6 mice.
(§1) On day 1 after tumor cell inoculation, all mice were randomly grouped before drug administration.
(§2) Dosing was performed according to the design of the pharmacological study protocol.
On day 7 and day 9 after tumor cell inoculation, the length (a) and width (b) of the tumor in each group of animals were measured externally. The tumor volume was estimated using the formula: V=0.52×a×b^2.
On day 10 after tumor cell inoculation, the experiment was terminated, and tumors were excised and weighed from each group of animals.
Statistical analysis and tumor inhibition rate calculation were performed as follows: Data were statistically analyzed using GraphPad Prism software. The tumor inhibition rate was calculated based on tumor size or tumor weight using the following formula: Tumor Inhibition Rate (%)=[(Average tumor volume or tumor weight of control group−Average tumor volume or tumor weight of treatment group)/Average tumor volume or tumor weight of control group]×[…].

Experiment [1] relates to Mouse Lewis lung carcinoma (LLC) cells. Briefly: Anti-tumor efficacy of PGc alone and with anti-mouse PD-1, LLC tumor in C57BL/6 mice (Example 6). In kind it is in vivo. The protocol:
The LLC cells were cultured in DMEM medium containing 10% high-quality fetal bovine serum (FBS) and maintained in a cell incubator with 5% CO2 at 37° C.
The LLC cells (tumor source) in the logarithmic growth phase were collected, and 0.1 mL of cell suspension (approximately 1×10^6 cells) was inoculated subcutaneously into the axillary region of the corresponding mice.
as §1, §2
On day 10 after tumor cell inoculation, the experiment was terminated, and tumors in each group of animals were excised and weighed.
Statistical Analysis and Tumor Inhibition Rate Calculation was as follows: Data were statistically analyzed using GraphPad Prism software.

Turning to `O=P1(N(CCCl)CCCl)NCCCO1` (centres unmarked) [Cyclophosphamide (CTX), Cyclophosphamide], the “Tumor Volume (mm^3) X” value in the experiment with LLC cells (LLC s.c. in C57/BL/6 mice, day 7 after tumor cell inoculation, group mean) stood at 80.40 mm^3; in the experiment with LLC cells (LLC s.c. in C57/BL/6 mice, day 9 after tumor cell inoculation, group mean), 112.89 mm^3. The “Tumor Weight (g) X” value with LLC cells (LLC s.c. in C57/BL/6 mice, day 10 after tumor cell inoculation, group mean) stood at 0.13 g. Further, the “Tumor Inhibition Rate” value is given as 33% with LLC cells (day 7 after tumor cell inoculation, from tumor volume vs NS); 47% with LLC cells (day 9 after tumor cell inoculation, from tumor volume vs NS); 45% with LLC cells (day 10 after tumor cell inoculation, from tumor weight vs NS); 42.80% in experiment [1] (LLC, from tumor weight vs NS). For the same compound, the “Tumor Weight (g) X ± SD” value in experiment [1] (LLC s.c. in C57BL/6 mice, tumors excised at termination (day 8 in protocol table, day 10 in text)) was found to be 0.03 ± 0.02 g.
